Data set [1] in a line: Stability in plasma, mouse. It counts as in vitro ADME. As to conditions: for half-life: 37° C., read-out: Mean T1/2 (converted). The procedure:
(§1) Working solutions of test compounds were prepared in PBS (pH 7.4). Propantheline was used as positive control for human, monkey, dog and mouse plasma in the assay. Mevinolin was used as positive control for rat plasma in this assay. 1 mM propantheline working solution was prepared in acetonitrile. 1 mM mevinolin working solution was prepared in DMSO. Incubation buffer of 475 μL plasma for each cell was added into the incubation plate and pre-warmed at 37° C. for 15 minutes. After the pre-incubation, 25 μL of working solution (test compounds or control compounds) was spiked to plasma. For Compound 5 and Compound 3, the final concentration of organic concentration was 0%. For Taxol, the final concentration of organic solvents was 0.25%. The assay was performed in duplicate. The reaction samples were incubated at 37° C. Aliquots of 50 μL were taken from the reaction samples at 0, 0.25, 0.5, 1, 2, 4, 6, 8 and 24 hours. The reactions were stopped by the addition of 450 μL of ice-cold quench solution (methanol with 2% FA containing internal standards). All samples were vortexed for 10 minutes, following by centrifugation at 3,220 g for 30 minutes to precipitate proteins. 100 μL of the supernatant from each well was transferred to a new plate. The supernatant was diluted with ultrapure water. Samples were analyzed by LC-MS/MS. All calculations were carried out using Microsoft Excel. Peak area ratios were determined from extracted ion chromatograms. Percent compounds remaining at each time point were calculated by the following equation: Remaining Percentaget min(%)=Peak Area Ratiot min/Peak Area Ratio0 min×100
(§2) Peak Area Ratiot min is peak area ratio of control and test compounds at t min; and
(§3) Peak Area Ratio0 min is peak area ratio of control and test compounds at zero time point.
(§4) The slope value, k, was determined by linear regression of the natural logarithm of the remaining percentage of the parent drug vs. incubation time curve.
(§5) The in vitro half-life (in vitro t1/2) was determined from the slope value: in vitro t1/2=(0.693/k)

A short description of data set [2]: Stability in plasma, human. In kind it is in vitro ADME. Conditions: for half-life: 37° C., read-out: Mean T1/2 (converted). The procedure:
as §1, §2, §3, §4, §5

The test system of data set [3] is NCI-H460-luc2 human intracranial cells. Kind of data set: Efficacy against brain cancer: survival in NCI-H460-luc2 intracranial model. It counts as in vivo, Female BALB/c nude mice. As to conditions: for Increase Life Span (%): vs vehicle group; for Median Survival Time: MST ± SEM. The procedure: Cell Culture: Luciferase marked NCI-H460-luc2 human intracranial cells were maintained in vitro as a monolayer culture in ATCC formulated RPMI1640 medium supplemented with 10% heat inactivated fetal bovine serum, 100 U/mL penicillin and 100 μg/mL streptomycin at 37° C. in an atmosphere of 5% CO2 in air. The tumor cells were routinely subcultured twice weekly by trypsin-EDTA treatment. The cells growing in an exponential growth phase were harvested and counted for tumor inoculation.
Tumor Inoculation and Animal Grouping: Female BALB/c nude mice were anesthetized with avertin (20 μL/g). The animals were dosed intraperitoneally with 10 mg/kg of carprofen 30 minutes post-surgery for pain relief.
The anesthetized mouse was properly positioned. The surgical area was prepped with 70% ethanol solution. Using a sterile scalpel, a sagittal incision was made over the parieto-occipital bone, approximately 1 cm long. The exposed skull surface was then cleaned using a cotton swab soaked in 0.9% saline. Prior to tumor cell injection, a sterile 25 gauge sharp needle was used to puncture the skull at 2 mm to the right of the bregma and 1 mm anterior to the coronal suture, thereby creating an opening for the injection of tumor cells. Prior to drawing cells into the syringe, the contents of the cell suspension was mixed by tapping with finger. The syringe was loaded with the desired amount of cell suspension, and extra care was taken to avoid air bubbles. The outside of syringe was then cleaned with an alcohol swab to wipe the exterior free of any adherent cells, which helped to prevent extracranial tumor establishment and growth. To ensure that the appropriate injection depth was achieved, a 3 mm length was cut off on pointed end of a P20 pipetteman tip by a scalpel. This section of the tip was fitted over the syringe to limit the injection depth, and to ensure that the tip of the syringe needle was 3 mm from the underside of the skull. The syringe was placed perpendicular to the skull, in the hole previously created. And the cell suspension was slowly injected (a 3 μL suspension contains 1×10^5 NCI-H460-luc2 cells in 20% Matrigel should be injected over a 1 minute period). Intraventricular injection of cells and subsequent spinal dissemination was prevented by appropriate angle of syringe insertion. Upon completion of injection, the needle was left in place for another minute, and then slowly withdrawn. The hole as closed with medical anastomotic glue (OB). Using forceps, the scalp was drawn together over the skull and the incision was closed with surgical suture. The mice were kept warm until completely recovered from anesthesia.
Animals were selected and randomized (based on their bioluminescence density) on day 4 after tumor implantation.
Observations: During routine monitoring, the animals were checked daily for any effects of tumor growth and treatments on normal behavior such as mobility, food and water consumption (by looking only), body weight gain/loss (body weights were measured twice weekly or daily), eye/hair matting and any other abnormal effect stated in the protocol. Death and observed clinical signs were recorded on the basis of the numbers of animals within each subset.
Bioluminescence Measurements and Endpoints: The surgically inoculated mice were weighed and intraperitoneally administered luciferin at a dose of 150 mg/kg. Ten to fifteen minutes after the luciferin injection, the animals were pre-anesthetized with the mixture gas of oxygen and isoflurane. When the animals were in a complete anesthetic state, the mice were moved into the imaging chamber for bioluminescence measurements with an IVIS (Lumina II) imaging system.
The major endpoint was to determine if the tumor bioluminescence growth can be delayed, decreased, or vanished. […] The bioluminescence of the whole animal body, including primary and metastatic tumors, was measured and recorded once per week according to protocol (bioluminescence data not shown). […]

The subject of data set [4] is breast cancer MCF7/MBA-MD-231 cells. Kind of data set: CCK-8 cytotoxicity / anti-proliferation assay, MCF7/MBA-MD-231. In kind it is cell-based. As to conditions: all tested concentrations (500-4000 nM). The method, then: Cytotoxicity Assay—CCK8 Cancer Cells
The CCK-8 assay was applied to study the cytotoxicity of the peptide drug conjugates and their inhibition of proliferation of cancer cells. First, 2˜10×10^3 cells (depending on the rate of growth of different cell lines) with 100 μL, DMEM media were seeded in normal culture medium into each well of a 96-well plate. The cells were then cultured overnight at 37° C. with 4˜5% CO2. Different doses (4000, 2000, 1000, 500 nM for Hep3B, Hep G2 and MCF7/MBA-MD-231; 1000, 333.3, 100.0, 33.33, 3.333, 1.000, 0.333 nM for MCF7/ADR, 22Rv1, CNE1, HCT116, DLD-1) of Taxol and peptide drugs were added. After 48˜72 hour incubation, CCK-8 solution was added to each well. The cells were then incubated at 37° C. for 4 hours. The optical density was measured at 450/650 nm using a multiscan spectrometer (PerkinElmer's EnSpire Multilabel Plate Reader). The optical density is linearly proportional to the number of living cells in the sample: […]

Where “and” joins values, the source holds several entries; their conditions need not be identical. Equal entries are not always repeated.

Turning to `CC(=O)N[C@@H](CSSCCCC(=O)OC(C(=O)O[C@H]1C[C@@]2(O)[C@@H](OC(=O)c3ccccc3)[C@@H]3[C@]4(OC(C)=O)CO[C@@H]4C[C@H](O)[C@@]3(C)C(=O)[C@H](OC(C)=O)C(=C1C)C2(C)C)[C@@H](NC(=O)c1ccccc1)c1ccccc1)C(=O)N[C@H](CCCNC(=N)N)C(=O)N[C@H](CCCNC(=N)N)C(=O)N[C@H](CCCNC(=N)N)C(=O)N[C@H](CCCNC(=N)N)C(=O)N[C@H](CCCNC(=N)N)C(=O)N[C@H](CCCNC(=N)N)C(=O)N[C@H](CCCNC(=N)N)C(=O)N[C@H](CCCNC(=N)N)C(N)=O` (stereo partly drawn) [Compound 3, Ac-L-Cysteine (paclitaxel-4-mercaptobutanoate)-D-Arginine8-NH2], the figures for the “Percent Increase of T1/2, Compound 3 over Compound 5” value in data set [1] and in data set [2] were 34.18% and 18.45%, respectively. Further, the values for the half-life in data set [1] and in data set [2] were 1.06 h and 1.22 h, respectively. Besides, the “Increase Life Span (%)” value in data set [3] (Compound 3 9.6 mg/kg) was 0.00%; in data set [3] (Compound 3 19.2 mg/kg), −28.57%; in data set [3] (Compound 3 38.4 mg/kg) it was 0.00%. In addition, the “Median Survival Time” value in data set [3] (Compound 3 9.6 mg/kg) was 14 days; in data set [3] (Compound 3 19.2 mg/kg) it was 10 ± 2 days; in data set [3] (Compound 3 38.4 mg/kg, 38.4 mg/kg) it was 14 days and 14 ± 1 days. The “survivors at the end point” value in data set [3] (Compound 3 38.4 mg/kg) is listed as “one mouse in Compound 3 38.4 mg/kg group was still alive”. Besides, in data set [4], the “cancer cell inhibition compared to Compound 5 (FIG. 1)” value is recorded as “substantially superior to cancer cell inhibition compared to Compound 5 at all tested concentrations”.
For `CC(=O)N[C@H](CSSCCCC(=O)O[C@@H](C(=O)O[C@H]1C[C@@]2(O)[C@@H](OC(=O)c3ccccc3)[C@@H]3[C@]4(OC(C)=O)CO[C@@H]4C[C@H](O)[C@@]3(C)C(=O)[C@H](OC(C)=O)C(=C1C)C2(C)C)[C@@H](NC(=O)c1ccccc1)c1ccccc1)C(=O)N[C@H](CCCNC(=N)N)C(=O)N[C@H](CCCNC(=N)N)C(=O)N[C@H](CCCNC(=N)N)C(=O)N[C@H](CCCNC(=N)N)C(=O)N[C@H](CCCNC(=N)N)C(=O)N[C@H](CCCNC(=N)N)C(=O)N[C@H](CCCNC(=N)N)C(=O)N[C@H](CCCNC(=N)N)C(N)=O` [Compound 5, Ac-D-Cysteine (paclitaxel-4-mercaptobutanoate)-D-Arginine8-NH2], the figures for the half-life in data set [1] and in data set [2] were 0.79 h and 1.03 h, respectively.
With `CC(=O)O[C@H]1C(=O)[C@@]2(C)[C@H]([C@H](OC(=O)c3ccccc3)[C@]3(O)C[C@H](OC(=O)[C@H](O)[C@@H](NC(=O)c4ccccc4)c4ccccc4)C(C)=C1C3(C)C)[C@]1(OC(C)=O)CO[C@@H]1C[C@@H]2O` [Taxol, paclitaxel], in data set [3] (Paclitaxel 10 mg/kg), the “Increase Life Span (%)” value is −28.57%; the “Median Survival Time” value was 10 days and 10 ± 1 days.

These data come from patent US12337037B2, “Taxol conjugate compounds, pharmaceutical compositions comprising the same, and methods for their use” (N1 Life, Inc, priority 2021, dated 2025).
